Source: patent US20040044304A1, “Local drug delivery using photosensitizer-mediated and electromagnetic radiation enhanced vascular permeability” (priority 2002, published 2004)
Several values for one entry are separate records, joined by “and”; a condition that tells them apart may be missing. Equal entries are not always repeated. Marks after values point to notes of the source that are not given here.

Test system: blood vessels and tissue within region of irradiation
Assay: Quantitation of FITC-Dextran or TRITC-Dextran fluorescence in blood vessels and tissue (method of Brunner et al.)
Assay type: in vivo, mice of strain C3H
Details: for Fluorecence intensity, Tissue, Baseline / Fluorecence intensity, Vessel, Baseline: prior to photodynamic treatment and probe
Experimental: At varying time points following the photodynamic activation of MRV6401 or SnET2, a total volume of 0.1 ml of either FITC-Dextran or TRITC-Dextran (obtained from Sigma Scientific, PO Box 14508, St. Louis, Mo., 63178, USA) was administered via the i.v. tail vein route. […] No. FD-2000s) or of molecular weight 150 kD (Sigma Cat. No. FD-150s), and the TRITC-Dextran solution was of molecular weight 155 kD (Sigma Cat. No. T1287). Prior to use, the dextrans were suspended in sterile 5% dextrose in water to a final concentration of 5% weight:volume. In all cases, a total volume of 0.1 ml of the […] solution was administered. The time of administration and the molecular weight of the various dextrans that were injected were as described in Table 6. In some animals the vascular permeability was determined 1-60 minutes following the completion of light irradiation using a dextran probe labeled with either FITC or TRITC, which was then followed 24 hours later by determination using a probe labeled with the other (opposite) fluorescent molecule. That is, if FITC was used immediately following irradiation, TRITC was used 24 hours later, and vice versa. To visualize the fluorescence emitted from the FITC-Dextrans, the Leitz Ploemopak L2 cube (Cat. No. 513-420, E. Leitz Inc., Rockleigh, N.J., 07647, USA) was used. This filter cube was fitted with a BP 450-490 (450 nm-490 nm band pass) excitation filter, the RKP 510 long pass dichroic mirror and a BP 525/20 (525±10 nm) band pass barrier filter. To visualize the fluorescence emitted from the TRITC-Dextrans, the Leitz Ploemopak N2 cube (Cat. No. 513-609, E. Leitz Inc., Rockleigh, N.J., 07647, USA) was used. This filter cube was fitted with a BP 530-560 (530 nm-560 nm band pass) excitation filter, the RKP 580 long pass dichroic mirror and the LP 580 (580 nm long pass) barrier filter. The spectral characteristics of the filters in the L2 and N2 cubes were such that in animals that were injected with both FITC- and TRITC-Dextran (see Table 6), there was no fluorescence “bleed-through” from the other fluorophore. That is, when visualizing TRITC-Dextran there was no fluorescent signal from FITC-Dextran that was present in the field. Similarly, when visualizing FITC-Dextran, there was no fluorescent signal from TRITC-Dextran that was present in the field. The quantitation of the level of either FITC-Dextran or TRITC-Dextran fluorescence in various regions of the chambers was undertaken using a minor modification of a previously described method [J. Brunner, F. Krummenaeur and H -A Lehr, “Quantification of video-taped images in microcirculation research using inexpensive imaging software” (Adobe Photoshop), Microcirculation, Vol. 7, pp 103-107, 2000]. In the studies described by Brunner et al., the imaging software utilized to quantitate the levels of fluorescence intensity in defined regions of interest within the window chamber was Adobe Photoshop. The software utilized for the studies described below was Image-Pro Plus (Media Cybernetics, 8484 Georgia Avenue, Silver Spring, Md. 20910, USA). In all other respects, the analysis undertaken below was the same as that described by Brunner et al. The level of fluorescence that was determined in both intra-vascular and extra-vascular regions using this method was directly proportional to the amount of the fluorescent labeled dextran in that region (Brunner et al., 2000).

[1] = 155 kD TRITC-Dextran, SnET2 0.75 mg/kg i.v., green 530 nm-560 nm 225 J/cm^2, time after TRITC-Dextran administration, region of irradiation, 0.75 mg/kg
[2] = Animal #12, 2,000 kD FITC-Dextran, MRV6401 0.05 mg/kg i.v., red 660 nm-680 nm 8 J/cm^2
[3] = Animal #12, 2,000 kD FITC-Dextran, MRV6401 0.05 mg/kg i.v., red 660 nm-680 nm 8 J/cm^2, time after Dextran administration
[4] = Animal #13, 155 kD TRITC-Dextran, MRV6401 0.05 mg/kg i.v., red 660 nm-680 nm 8 J/cm^2
[5] = Animal #13, 155 kD TRITC-Dextran, MRV6401 0.05 mg/kg i.v., red 660 nm-680 nm 8 J/cm^2, time after Dextran administration

CCOC(=O)C1=Cc2c3nc(cc4nc(cc5[n-]c(cc6[n-]c2c(C)c6CC)c(C)c5CC)C(C)=C4CC)[C@@H](C)[C@]13CC.[Cl-].[Cl-].[Sn] (racemic) [SnET2, tin ethyl etiopurpurin]
Fluorecence intensity, Tissue, Baseline (155 kD TRITC-Dextran, SnET2 0.75 mg/kg i.v., green 530 nm-560 nm 225 J/cm^2, mean ± 1 SD of three readings, 0.75 mg/kg): 30.5 ± 1.4 and 26.5 ± 0.2 | Fluorecence intensity, Tissue, 8 min [1]: 82.9 ± 1.9 and 73 ± 2.0 | Fluorecence intensity, Tissue, 20 min [1]: 110 ± 2.4 and 120 ± 4.4 | Fluorecence intensity, Tissue, 1 hr [1]: 175.4 ± 3.3 and 127.9 ± 5.5 | Fluorecence intensity, Tissue, 24 hr [1]: 196.4 ± 4.2 and 155 ± 7.1 | Fluorecence intensity, Vessel, 8 min [1]: 72 ± 1.7 and 105 ± 3.1 | Fluorecence intensity, Vessel, 20 min [1]: 90.6 ± 5.8 and 111 ± 2.7 | Fluorecence intensity, Vessel, 1 hr [1]: 97.7 ± 6.2 and 134 ± 10 | Fluorecence intensity, Vessel, 24 hr [1]: 55 ± 3.1 and 78 ± 1.5

C=Cc1c(C)c2[n]3c1=CC1=NC(=Cc4c(C)c5c([n]4[In]3[Cl])C(=C3N=C(C=2)[C@@H](C)[C@@H]3CCC(=O)OC)CC5=O)C(CC)=C1C [MV6401, indium methyl pyropheophorbide]
Fluorecence intensity, Tissue, Baseline [2]: 50 ± 1.8 | Fluorecence intensity, Vessel, Baseline [2]: 50 ± 1.6^c | Fluorecence intensity, Tissue, 10 min [3]: 91.9 ± 4.4 | Fluorecence intensity, Tissue, 1 hr [3]: 121.1 ± 2.2 | Fluorecence intensity, Tissue, 24 hr [3]: 135 ± 6.6 | Fluorecence intensity, Vessel, 10 min [3]: 79.1 ± 1.95 | Fluorecence intensity, Vessel, 1 hr [3]: 83.5 ± 1.9 | Fluorecence intensity, Vessel, 24 hr [3]: 78.9 ± 2.0 | Fluorecence intensity, Tissue, Baseline [4]: 59.5 ± 1.87 | Fluorecence intensity, Vessel, Baseline [4]: 56.6 ± 1.24 | Fluorecence intensity, Tissue, 10 min [5]: 119.7 ± 1.96 | Fluorecence intensity, Tissue, 1 hr [5]: 122.9 ± 2.6 | Fluorecence intensity, Tissue, 24 hr [5]: 156 ± 1.49 | Fluorecence intensity, Vessel, 10 min [5]: 182.9 ± 2.6 | Fluorecence intensity, Vessel, 1 hr [5]: 168.7 ± 2.5 | Fluorecence intensity, Vessel, 24 hr [5]: 46 ± 1.4
